{"source": "patent US6893829B2", "about": "“Human leukocyte 12-lipoxygenase and its role in the pathogenesis of disease states” (City of Hope, priority 1992, dated 2005)", "key": {"[1]": {"test_system": "JNK", "assay": "JNK activity in CHO-AT1a cells", "type": "cell-based, Chinese hamster", "conditions": "AII 10^−7M", "procedure": "The plasmid pGEX-cJun 1/79 (Dept. Pharmacol. UCSD, La Jolla) is a GST-cJun (1-79) expression vector encoding amino acids (1-79) of cJun. The GST fusion protein expression vector was transformed into E. Coli. Protein was induced with 0.1 mM IPTG and purified by affinity binding to glutathione-agarose beads. Unstimulated or stimulated cells were lysed into WCEB (25 mM HEPES, pH 7.7, 03.M Nacl, 15 mM MgCl2, 02.mM EDTA and 0.1% triton X-100). About 50 μg protein extract was incubated with GST-cJun+GSH agarose overnight at 4° C. Phosphorylation was carried out at 30° C. for 20 minutes in the presence of 20 mM HEPES, pH 7.5, 20 mM b-glycerophosphate, 10 mM p-nitrophenolphosphate, 10 mM MgCl2, 10 mM DDT, 50 μg Na3VO4, 20 μM ATP (cold) and about 0.5 μl of new gamma ^32P-ATP. After boiling with electrophoresis sample buffer, the supernatants were analyzed on 12% SDS-PAGE. JNK activity was also measured by immunoprecipitation method using an anti-JNK antibody (Parmingen Co., San Diego) and then activities were measured using 2 μg of GST-cJun (1-79) as substrate as described in Cell, 81:1147-1157 (1995).\n(§1) It has been discovered that the administration of AII results in biphasic activation of MAP kinase (all of the MAP kinase experiments were conducted in CHO-AT1a cells—AII receptor AT1a cDNA transfected Chinese hamster ovary cells)."}, "[2]": {"test_system": "PAK", "assay": "PAK activity in CHO-AT1a cells", "type": "cell-based, Chinese hamster", "conditions": "AII 10^−7M, 30 minutes", "procedure": "Cell lysis and PAK activity measurement were performed as described in Science, 269:221-223 (1995). Cells were lysed on ice in 50 mM Tris-HCl, 150 mM NaCl, 5 mM EGTA, 50 mM NaF, 10 mM Na pyrophosphate, 1% NP-40, 2.5% glycerol, and 1 mM Na3VO4 (pH 7.5), containing protease inhibitors PMSF, leupeptin and aprotinin. Cell were centrifuged for 10 minutes at 1000 g. For immunoprecipitation, the supernatants were incubated with anti-PAK1 or anti-PAK2 antibody (1:25) (Dept. Immuno. & Cell Biology, Scripps Res. Instit., La Jolla, Calif.) for 2 hours at 4° C. followed by incubation with 60 μl of 1:1 protein A beads for 60 minutes, then 5×1.0 ml lysis buffer washes and 2 washes with kinase buffer (50 mM HEPES, pH 7.5, 10 mM MgCl2 0.2 mM dithiothreitol, 2 μg myelin basic protein and 14 Mμ [r-^32P] ATP) for 20 minutes at 30° C. The reaction was stopped with SDS sample buffer, and results were visualized by SDS-PAGE and autoradiography.\nas §1"}, "[3]": {"test_system": "leukocyte 12-LO mRNA in HSMC", "assay": "12-LO mRNA expression in HSMC (RT-PCR)", "type": "cell-based, human", "conditions": "AII 10^−7 mol/L", "source_text": "FIGS. 5A and 5B illustrate the regulation of leukocyte 12-LO mRNA levels by AII in HSMC using RT-PCR. FIG. 5A is the autoradiogram of the blot hybridized with 12-LO oligonucleotide probe. FIG. 5B is etidium bromide stained agarose gel. […] RNA samples were amplified for 40 cycles with leukocyte 12-LO primers or GAPDH primers.\nTotal RNA from cultured HSMC, HAEC and fresh MO was extracted with guanidiumthiocyanate-phenol-chloroform using RNAzol (Cinna/Biotecx Laboratories International Inc., Texas). Some RNA samples were treated by RNAse-free DNAse. 3 microgram of total RNA was mixed with the PCR buffer (10 mmol/L Tris-HCl, pH 8.3, 50 mmol/L KCl, 1.5 mmol/L MgCl2, and 0.001% gelatin), 200 μmol/L of each of the four deoxynucleotide triphosphates, 25 pmol each of 5′- and 3′-primers, 2 U Avian Myeloblastosis Virus reverse transcriptase (20 U/μl; Life Sciences, St. Petersburg, Fla.), and 2.5 U Taq polymerase (Perkin Elmer Cetus, Norwalk, Conn.) in a final vol of 50 μl. In some reactions, 5 pmol of each 5′- and 3′-primer of β2 macroglobulin or GAPDH were added as an internal standard. The samples were placed in a thermal cycler at 37° C. for eight minutes for the RT reaction to proceed. Then conditions used for PCR were a denaturation step at 94° C. for one-minute, annealing at 50° C. for two minutes, and extension at 72° C. for two minutes for 20-40 cycles. Blank reactions with no RNA template were carried out through the RT and PCR steps. […]\n20 μl aliquots of the PCR products were subjected to electrophoresis in a 1.8% agarose gel in Tris acetate-EDTA buffer. […] Blots were quantitated using a computerized video densitometer.\nIn order to evaluate the specific expression and regulation of 12-LO mRNA in HSMC, applicants used a RT-PCR assay that exclusively amplifies the leucocyte type of 12-LO. […] When PCR conditions were used that were specific for either the platelet type 12-LO or human 15-LO no specific RNA band was detected (data not shown). […]"}}}
{"substance": "Angiotensin II (DRVYIHPF; Angiotensin-2; UniProt P01019 25-32, looked up) [AII, peptide hormone, added to cells as stimulus]", "values": [{"measurement": "stimulation of JNK activity", "setting": "[1]", "value": "peaks at 30 minutes and remains sustained for 1 hour"}, {"measurement": "stimulation of PAK, major peak", "setting": "[2]", "value": 5, "unit": "fold"}, {"measurement": "incubation time at which 12-LO mRNA induction starts", "setting": "[3]", "value": 12, "unit": "h"}, {"measurement": "incubation time of maximum 12-LO mRNA induction", "setting": "[3]", "value": 36, "unit": "h"}, {"measurement": "leukocyte type 12-LO mRNA expression", "setting": "[3]; serum deprived HSMC", "value": "markedly upregulated"}]}
